In one series the test system is TNFα release. The series is described as follows: LPS-induced TNFα release in diluted human blood (ELISA). In kind it is cell-based. On the procedure: In vitro, investigations on the influencing of the release of the proinflammatory cytokine TNFα in human blood of various donors diluted 1:5 were carried out. The stimulation was effected using lipopolysaccharide (LPS) from Salmonella abortus equi (10 μg/ml) over the course of 24 h at 37° C. and 5% CO2 in an incubator. The TNFα release was determined using an ELISA, based on antibodies from Pharmingen.
(In general: An ELISA detects its analyte on a solid surface through an enzyme-linked reagent.)

Series [1] concerns young domestic pigs actively sensitized with an antigen (extract from Ascaris suum). The series can be described thus: Allergen-induced nasal secretion (rhinorrhea) in Ascaris-sensitized young domestic pigs. Particulars: for Inhibition of nasal secretion: intranasal Ascaris allergen challenge, pigs. In kind it is in vivo. How it is done: In vivo investigations were carried out on young domestic pigs actively sensitized with an antigen (extract from Ascaris suum). Three weeks later, they were exposed to allergen challenge, which was carried out by intranasal instillation of the Ascaris extract. This local intranasal allergen challenge leads to a very great increase in the nasal secretion (rhinorrhea). The amount of secretion was determined gravimetrically.

The conditions of series [2]: cited from earlier work.

Each structure is given as a SMILES string.

In the series on TNFα release (loteprednol 0.001 μmol/l, human blood diluted 1:5, LPS 10 μg/ml, 24 h), `CCOC(=O)O[C@]1(C(=O)OCCl)CC[C@H]2[C@@H]3CCC4=CC(=O)C=C[C@]4(C)[C@H]3[C@@H](O)C[C@@]21C` [Loteprednol] came in with an inhibition at 0.001 µM of 1%. In the series with TNFα release (loteprednol 0.01 μmol/l, human blood diluted 1:5, LPS 10 μg/ml, 24 h), this compound returned an inhibition at 0.01 µM of 2%. The inhibition at 0.03 µM with TNFα release (loteprednol 0.03 μmol/l, human blood diluted 1:5, LPS 10 μg/ml, 24 h) came out at 8%. In addition, the “Inhibition of nasal secretion” value in series [1] (loteprednol 20 μg/nostril) was found to be 8%.
As to `CCOC(=O)O[C@]1(C(=O)OCCl)CC[C@H]2[C@@H]3CCC4=CC(=O)C=C[C@]4(C)[C@H]3[C@@H](O)C[C@@]21C` [Loteprednol etabonate], the Water solubility entry in series [2] is recorded as “virtually water-insoluble”.
Take `CN1CCCC(n2nc(Cc3ccc(Cl)cc3)c3ccccc3c2=O)CC1` (stereo not drawn) [Azelastine]: the “LPS-induced TNFα release (in words)” value with TNFα release (administered alone) is on record as “remains virtually unchanged”. In the series on TNFα release (azelastine 10 μmol/l, human blood diluted 1:5, LPS 10 μg/ml, 24 h), this compound had an inhibition at 10 µM of 2%. Also, the “Inhibition of nasal secretion” value in series [1] (azelastine 10 μg/nostril) came to 15%. In series [1] (used alone at 10 or 20 μg/nostril), the “Inhibition of the allergically induced nasal hypersecretion (in words)” value was “only marginal inhibition”.

Broadly, the inhibition is the percentage by which the read-out fell short of the control. Low readings indicate little suppression, high ones strong suppression.

Values taken from patent publication US7022687B1, “Combination of loteprednol and antihistamines” (Asta Medica AG, priority 1999, dated 2006).
